Measured values: article PMC11251039, “Harnessing cholesterol uptake of malaria parasites for therapeutic applications” (EMBO Molecular Medicine, 2024)
Where “and” joins values, the source holds several entries; their conditions need not be identical. Equal values may be shown once. Read-outs that look alike come from different tables or passages of the source.

Key:
[1] = test system: P. falciparum CAM3.II ring stages (0–3 h post invasion); test: Plasmodium falciparum ring stage survival assay, resistant strain; format: cell-based
Procedure: Following tight synchronisation using sorbitol and Percoll® floatation, ring stage CAM3.II and CAM3.IIREV parasites (0–3 h post invasion) at 1% parasitaemia and 2% haematocrit were incubated with 700 nM of compounds or solvent-only controls for exactly 6 h, before removing the drug, thoroughly washing in RPMI with HEPES, and returning to culture conditions for a further 66 h. Some cells were treated with 700 nM artesunate for 72 h as a no-growth control. DNA replication (indicating growth) was measured at the specified time using SYBR Safe DNA Stain. Microscope slide smears of each condition were stained with 10% v/v Giemsa and examined under a light microscope (×1000 magnification); with ‘viable’ (morphologically normal) and ‘non-viable’ (morphologically aberrant; vacuolated or pyknotic) parasites distinguished according to standard protocol (Witkowski et al, [2013]). Images were captured using a Leica ICC50 camera, with a resolution of 76 nm per pixel, and cropped from larger images using Fiji ImageJ.
(§1) Appendix Fraser/Curtis et al.
Cells were detached from a flask using 0.25% Trypsin with 0.2 g/L EDTA (Sigma T4049) and washed with culture media containing no phenol red. Cells were incubated with a serial dilution of each compound, or media/DMSO alone. The protein synthesis inhibitor cycloheximide (Sigma 01810) at 10 µg/mL was used as a positive control to determine background absorbance. 5,000 cells were seeded in each well. After 96 hours, 0.45 mg/mL methylthiazolyldiphenyl-tetrazolium bromide (MTT; Sigma M2128) was added and incubated for a further two hours, before mixing 1.1:1 with 10% w/v sodium dodecyl sulfate (SDS) to solubilise crystals and freezing the plate at -18 °C to stop the assay. Plates were defrosted at room temperature and absorbance was read at 570 nm in an Infinite M1000 pro plate reader […]
Plasmodium falciparum Ring Stage Survival Assay
Ring stage survival assays were conducted according to standard protocols with some modifications (27, 28). CAM3.11 and CAM3.11REV parasites were sorbitol synchronised twice, 12 hours apart, and then incubated for a further 30 hours until the majority of the parasites were mature schizonts (with clearly separated nuclei). Pelleted RBCs were incubated at 37 °C with heparinised RPMI for 15 minutes, and then centrifuged over 75% Percoll® in PBS for 15 minutes at 1,000 g. Mature schizonts were collected, washed with warm RPMI, and cultured for exactly three hours with fresh uRBCs and culture media. After 3 hours, the cultures were sorbitol synchronised and incubated in duplicate with 700 nM of artesunate, PAYb076a, GGA5, HJB8a53, a DMSO solvent-only control or media alone for exactly six hours, before removing the drug, washing in RPMI, and returning to culture conditions. Samples of each cell suspension were transferred to a -18 °C freezer at the start of the assay (time = 0) or treated for the entire 72 hours with 700 nM artesunate to determine background fluorescence under no-growth conditions. After a further 66 hours of incubation (totalling 72 hours), cells were […]
resuspended, and a sample from each well was transferred to a fresh plate and frozen at -18 °C.
Microscope slide smears were made using the remaining cells and stained with 10% v/v Giemsa. Plates were thawed and SYBR Safe DNA Gel Stain (final concentration 1/10,000) diluted in lysis buffer (as above) was added for DNA detection at 490 nm excitation / 520 nm emission on a FLUOstar Optima fluorescence plate reader. Parasite proliferation and viability were also assessed using Giemsa-stained smears examined under a light microscope (1,000× magnification); with ‘viable’ and ‘non-viable’ (vacuolated or pyknotic) parasites distinguished according to standard protocol. Images were captured using a Leica ICC50 camera, with a resolution of 76 nm per pixel.
Growth inhibition data were normalised by subtracting background fluorescence, […]

[2] = Human hepatoma viability assay (CellTiter-Blue); format: cell-based; conditions: human, replicate data points, read-out: Huh7 viability, dose-response data points (Figure 3F); for viability at 48 h, 0.137174 µM: 0.137174210 uM
Summary of the method: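 Huh7 cells (10,000/well) were seeded and treated the next day with serially diluted compound or DMSO, with media partially renewed with fresh dilutions over two days.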

[3] = test system: P. berghei liver stage parasites; test: P. berghei liver stage parasite size and number (fluorescence microscopy, coverslips); format: cell-based, Plasmodium berghei; conditions: for Normalised mean size of liver stage parasites, percentage of the solvent control: per coverslip, source data Fig. 3C
Procedure: Uninfected wells served as a control for background luminescence. […] No other manipulations were performed.
as §1
For measurement of parasite size and number, 20,000 Huh7 cells were seeded onto collagen-coated coverslips on the day prior to infection. As above, 10,000 – 20,000 sporozoites were added per slide, allowed to invade for 60 minutes after centrifugation, and then incubated for […]
Infected cells were fixed with 3% paraformaldehyde in PBS, permeabilized with 0.3% v/v Triton X-100, and labelled with 1:1,000 polyclonal chicken anti-GFP (Abcam ab13970), 1:2,000 goat anti-chicken Alexa […]
intrinsic GFP fluorescence could be detected, as well as Fluoromount-G® containing 4′,6-diamidino-2-phenylindole (DAPI; Southern Biotech), to stain parasite and host cell nuclei.
Images were collected on a Zeiss Axio Observer Z2 microscope with a Zeiss AxioCam MRm at 200× or 400× (for quantification) or 630× (for cell images) magnification, with a resolution of […], 163 nm or 102 nm per pixel respectively. Alexa Fluor™ 546 fluorescence was detected at 546/13 nm excitation and 675/35 nm emission. […]
fluorescence was detected at 470/20 nm excitation and 525/25 nm emission. DAPI fluorescence (nucleic acid) was detected at 359/24 nm ex and 445/25 nm em. For quantification, all cells on each coverslip were imaged under the same settings for each experiment. P. berghei liver stage size was measured as described (24) using Fiji ImageJ (25). Liver-stage parasites were identified and delineated in fluorescent images using defined threshold levels, and the identified fluorescent areas were used to measure parasite area. The number of parasites on each coverslip was also counted. […]
manipulations were performed.

## CC(C)OC(=O)CCC(=O)O[C@H]1CC[C@H]2[C@@H]3CC=C4C[C@@H](O)CC[C@]4(C)[C@H]3CC[C@]12C [C-17-link]
[1]; 700 nM, 6 h treatment, 66 h further growth, CAM3.II resistant
  Ring stage survival, growth: did not significantly impact the growth
[1]; CAM3.11, replicate experiments, listed as HJB8a53
  Ring stage survival, individual data points (Figure 4C): 67.82 and 103.7 and 86.39 and 70.09

## COc1cc(NC(C)CCCNC(=O)CCC(=O)O[C@H]2CC[C@H]3[C@@H]4CC=C5C[C@@H](O)CC[C@]5(C)[C@H]4CC[C@]23C)c2ncccc2c1 (stereo partly drawn) [C-17-PQ]
[2]; 0.015241580 uM
  viability at 48 h, 0.0152416 µM: 94.8%
[2]; 0.045724740 uM
  viability at 48 h, 0.0457247 µM: 94.9%
[2]
  viability at 48 h, 0.137174 µM: 95.3%
[2]; 0.411522630 uM
  viability at 48 h, 0.411523 µM: 94.5%
[3]; 0.3 µM, 48 h
  Reduction of parasite size (area) compared to untreated parasites: 48%
[3]; 0.3 μM, 48 h, listed as BC5B
  Normalised mean size of liver stage parasites, percentage of the solvent control: 47.88% and 39.55% and 51.73% and 68.26% and 63.53% and 38.56%
[3]; 3 µM, 48 h
  Reduction of parasite size (area) compared to untreated parasites: 90%
[3]; 0.3 or 3 µM, 48 h
  Parasite number per coverslip compared to the same concentration of primaquine: significantly lower

## COc1cc(NC(C)CCCNC(=O)CCC(=O)OC(C)C)c2ncccc2c1 (stereo not drawn) [PQ-link]
[2]; Huh7 hepatoma cells
  viability at 48 h, 0.137174 µM: 99.3%

## COc1cc(NC(C)CCCN)c2ncccc2c1 (stereo not drawn) [Primaquine, primaquine, reference compound]
[3]; 0.3 µM, 48 h
  Reduction of parasite size (area) compared to untreated parasites: not at 0.3 µM
[3]; 0.3 μM, 48 h
  Normalised mean size of liver stage parasites, percentage of the solvent control: 100% and 99.34% and 108% and 106.3% and 110.6% and 86.33%
[3]; 0.3 μM, Assay 2, first replicate column, individual data points
  Figure 3C - Individual Data Points (P. berghei liver stage parasite size, individual parasites): 43.02 and 107.9 and 92.89 and 48.67 and 95.55 and 31.33 and 39.11 and 132.2 and 73.2 and 29.42
[3]; 3 µM, 48 h
  Reduction of parasite size (area) compared to untreated parasites: 61%
